According to patent US20230364175A1 (priority 2022, published 2023):
≈ marks a conversion by molar mass, not a printed value. Read-outs that look alike come from different tables or passages of the source.

What was measured:
physchem = format: physicochemical
Excerpt: (§1) In some embodiments, the one or more organic compounds includes cyclodextrin or a cyclodextrin derivative. In some embodiments, the one or more organic compounds includes hydroxypropyl-beta-cyclodextrin (HPBCD). In some embodiments, HPBCD is provided in a concentration ranging from about 0.49 to about 0.55 wt. %, including, for example, 0.50%, 0.51%, 0.52%, 0.53%, and 0.54%. […] The low solubility of melatonin can lead to limited absorption and bioavailability. With the addition of HPBCD, the solubility of melatonin is improved to about 10 mg/mL. In an aqueous solution in which HPBCD is present at a concentration ranging from about 0.49 to about 0.55 wt. %, HPBCD monomers have a hydrodynamic size of 10 nm and aggregates of HPBCD form up to 100 nm in diameter (measured via dynamic light scattering).

log P of melatonin = format: physicochemical
Excerpt: as §1

## COc1ccc2[nH]cc(CCNC(C)=O)c2c1 [melatonin]
physchem
  solubility: ~100 µg/mL (≈ 0.431 mM)
physchem; aqueous with cosolvent or surfactant or cyclodextrin
  solubility: ~10000 µg/mL (≈ 43.1 mM)
Log P of melatonin
  logP: 1.6
